{
  "source": "patent US20030032879A1",
  "about": "“Microbubble formation using ultrasound” (priority 1997, published 2003)",
  "key": {"dogs": {"test_system": "dogs", "conditions": "cited from earlier work"}, "[1]": {"experiment": "Acoustic backscatter (gray scale intensity) after injection into water beaker at 37° C.", "conditions": "0.2 mL neat liquid (1111 micromoles) into 1000 mL water at 37° C.", "protocol": "The criticality that the low boiling liquid be present as a finely divided dispersion rather than as a neat liquid was determined by measuring the acoustic backscatter of the two states.\nTwo solutions were prepared to simulate the administration to an organism of either a colloidal dispersion of a low boiling liquid or the liquid neat. These were scanned at 5.0 MHz with a Hewlett Packard Model 77020 ultrasound scanner and the images obtained recorded on Sony ES VHS tape. The analog images from the tape were then converted to a digital form using the software package Global Lab Image Software (Data Translation, Marlboro, Mass.). The gray scale intensity within a 4900 pixel (70×70 pixel-sized) region-of-interest was then measured before and after the injection of the colloidal dispersion of Example 19 and the same quantity of neat dodecafluoropentane into a 1000 mL water beaker equilibrated at 37° C.\nThe measurements were performed on a gray scale of 2 to 254. […] The injection of 0.1 mL of this emulsion produced a change of intensity to 236 five seconds post-injection and 182 fifty-two seconds post-injection.\nThe same experiment was performed with a 0.2 mL injection of neat dodecafluoropentane. This corresponds to 1111 micromoles of dodecafluoropentane, over 300-times the quantity in the experiment above. […]"}, "[2]": {"experiment": "Interfacial tension against dodecafluoropentane, Kruss Drop Volume Tensiometer", "assay_type": "physicochemical", "conditions": "Pluronic P-123 / F-127 mixtures, 4° C."}, "[3]": {"experiment": "Calculated change in dispersion size from liquid and gas densities", "assay_type": "physicochemical", "conditions": "calculated from cubic root of volume", "protocol": "One can also calculate the expected change in dispersion size if one knows the relative densities of the dispersed liquid as a gas and liquid. For example, the Gas Data Book, by W Braker and A Mossman, Matheson, contains such data. Examining octafluorocyclobutane, one finds that 1 L of the liquid yields 188 L of gas at a pressure of 760 mm Hg and 15° C. Since the volume of a sphere is related to the diameter of a sphere by the cubic root of the volume, the phase transition for an octafluorobutane emulsion particle will cause a 5.7-fold increase in diameter."}, "[4]": {"conditions": "760 mm Hg and 15° C., Gas Data Book; cited from earlier work"}},
  "data": [
    {"smiles": "CCOCC", "note": "[ether]", "values": [
      {"measurement": "toxicity", "setting": "dogs; Injections of 20 mL", "result": "fatal"},
      {"measurement": "contrast effect on Doppler signal", "setting": "dogs; intraarterial, detected five cm below injection site", "result": "greatest contrast effect"}
    ]},
    {"smiles": "FC(F)(F)C(F)(F)C(F)(F)C(F)(F)C(F)(F)F", "note": "[dodecafluoropentane]", "values": [
      {"measurement": "image intensity (gray scale of 2 to 254)", "setting": "[1]; fifty-two seconds post-injection", "result": 5.0},
      {"measurement": "image intensity (gray scale of 2 to 254)", "setting": "[1]; five seconds post-injection", "result": 7.7},
      {"measurement": "HLB from graphed interfacial tension data", "setting": "[2]", "result": "about 14"}
    ]},
    {"smiles": "FC1(F)C(F)(F)C(F)(F)C1(F)F", "note": "[octafluorocyclobutane]", "values": [
      {"measurement": "increase in diameter of emulsion particle on phase transition", "setting": "[3]", "result": 5.7, "unit": "fold"},
      {"measurement": "gas volume from 1 L of the liquid", "setting": "[4]", "result": 188, "unit": "L"}
    ]}
  ]
}
